In ChEMBL document CHEMBL3046790, “Antioxidant potential and antimicrobial screening of some novel imidazole derivatives: greenway efficient one pot synthesis” (Med Chem Res, 2012):
Values after ≈ are worked out from the molar mass of the structure shown.

Experiments:
Assay type in all cases: functional
Aspergillus niger = assay: Antimicrobial activity against Aspergillus niger after 24 hr
Aspergillus flavus = assay: Antimicrobial activity against Aspergillus flavus after 24 hr
Candida = assay: Antimicrobial activity against Candida-6 after 24 hr; settings: Candida, 6, 24 h
Klebsiella pneumoniae = assay: Antimicrobial activity against Klebsiella pneumoniae after 24 hr
[1] = Antioxidant activity assessed as hydroxyl radical scavenging activity at 10 uM after 60 min using thiobarbutaric acid by spectrophotometry
[2] = Antioxidant activity assessed as DPPH scavenging activity at 50 uM after 30 min by spectrophotometry
[3] = Antioxidant activity assessed as hydroxyl radical scavenging activity at 100 uM after 60 min using thiobarbutaric acid by spectrophotometry
[4] = Antioxidant activity assessed as superoxide scavenging activity after 15 min by PMS/NADH-NBT assay
[5] = Antioxidant activity assessed as superoxide scavenging activity at 40 uM after 15 min by PMS/NADH-NBT assay
[6] = Antioxidant activity assessed as superoxide scavenging activity at 20 uM after 15 min by PMS/NADH-NBT assay
Staphylococcus aureus = assay: Antimicrobial activity against Staphylococcus aureus after 24 hr
[7] = Antioxidant activity assessed as DPPH scavenging activity at 30 uM after 30 min by spectrophotometry
[8] = Antioxidant activity assessed as superoxide scavenging activity at 60 uM after 15 min by PMS/NADH-NBT assay
[9] = Antioxidant activity assessed as DPPH scavenging activity at 40 uM after 30 min by spectrophotometry
[10] = Antioxidant activity assessed as DPPH scavenging activity after 30 min by spectrophotometry
[11] = Antioxidant activity assessed as hydroxyl radical scavenging activity at 20 uM after 60 min using thiobarbutaric acid by spectrophotometry
[12] = Antioxidant activity assessed as DPPH scavenging activity at 10 uM after 30 min by spectrophotometry
[13] = Antioxidant activity assessed as DPPH scavenging activity at 20 uM after 30 min by spectrophotometry
[14] = Antioxidant activity assessed as hydroxyl radical scavenging activity at 40 uM after 60 min using thiobarbutaric acid by spectrophotometry
[15] = Antioxidant activity assessed as superoxide scavenging activity at 10 uM after 15 min by PMS/NADH-NBT assay
[16] = Antioxidant activity assessed as hydroxyl radical scavenging activity at 60 uM after 60 min using thiobarbutaric acid by spectrophotometry
[17] = Antioxidant activity assessed as hydroxyl radical scavenging activity at 80 uM after 60 min using thiobarbutaric acid by spectrophotometry
[18] = Antioxidant activity assessed as hydroxyl radical scavenging activity after 60 min using thiobarbutaric acid by spectrophotometry
[19] = Antioxidant activity assessed as superoxide scavenging activity at 100 uM after 15 min by PMS/NADH-NBT assay
Escherichia coli = assay: Antimicrobial activity against Escherichia coli after 24 hr
[20] = Antioxidant activity assessed as superoxide scavenging activity at 80 uM after 15 min by PMS/NADH-NBT assay

| Structure (SMILES) | MIC (Aspergillus niger) [µg/mL] | MIC (Aspergillus flavus) [µg/mL] | MIC (Candida) [µg/mL] | MIC (Klebsiella pneumoniae) [µg/mL] | IC50 [4] [µg/mL] | IC50 [10] [µg/mL] | Activity [1] [%] | Activity [2] [%] | Activity [3] [%] | Activity [5] [%] | Activity [6] [%] | Activity [7] [%] | Activity [8] [%] | Activity [9] [%] | Activity [11] [%] | Activity [12] [%] | Activity [13] [%] | Activity [14] [%] | Activity [15] [%] | Activity [16] [%] | also measured |
| --- | --- | --- | --- | --- | --- | --- | --- | --- | --- | --- | --- | --- | --- | --- | --- | --- | --- | --- | --- | --- | --- |
| C[C@@H]1[C@H](O)[C@@H](C)/C=C/C=C/C=C/C=C/C=C/C=C/C=C/[C@H](O[C@@H]2O[C@H](C)[C@@H](O)[C@H](N)[C@@H]2O)C[C@@H]2O[C@](O)(C[C@@H](O)C[C@@H](O)[C@H](O)CC[C@@H](O)C[C@@H](O)CC(=O)O[C@H]1C)C[C@H](O)[C@H]2C(=O)O [AMPHOTERICIN B] | 50 (≈ 54.1 µM) | 25 (≈ 27.1 µM) | 12.5 (≈ 13.5 µM) | – | – | – | – | – | – | – | – | – | – | – | – | – | – | – | – | – | – |
| COc1cc(OC)cc(-n2c(-c3ccc(F)cc3)nc(C)c2C)c1 | 50 (≈ 153 µM) | 50 (≈ 153 µM) | 50 (≈ 153 µM) | 100 (≈ 306 µM) | 4.16 (≈ 12.7 µM) | 3.98 (≈ 12.2 µM) | 35.6 | 56.6 | 54 | 55.2 | 24.8 | 42.4 | 60 | 57.6 | 40.2 | 12.1 | 19.2 | 47.1 | 21.9 | 57.5 | Activity [4]: Dose-dependent effect; MIC (Staphylococcus aureus): 50 µg/mL (≈ 153 µM); Activity [10]: Dose-dependent effect; Activity [17]: 55.2%; Activity [18]: Dose-dependent effect; IC50 [18]: 4.18 µg/mL (≈ 12.8 µM); Activity [19]: 55.2%; MIC (Escherichia coli): 50 µg/mL (≈ 153 µM); Activity [20]: 58.1% |
| COc1ccc(-n2c(-c3ccccc3)nc(C)c2C)cc1 | 100 (≈ 359 µM) | 25 (≈ 89.8 µM) | 25 (≈ 89.8 µM) | 100 (≈ 359 µM) | 3.74 (≈ 13.4 µM) | 3.64 (≈ 13.1 µM) | 35.6 | 55.5 | 52.9 | 63.1 | 28.1 | 59.6 | 64.9 | 56.6 | 40.2 | 14.1 | 28.3 | 43.7 | 10.5 | 48.3 | Activity [4]: Dose-dependent effect; MIC (Staphylococcus aureus): 50 µg/mL (≈ 180 µM); Activity [10]: Dose-dependent effect; Activity [17]: 50.6%; Activity [18]: Dose-dependent effect; IC50 [18]: 4.5 µg/mL (≈ 16.2 µM); Activity [19]: 59.6%; MIC (Escherichia coli): 25 µg/mL (≈ 89.8 µM); Activity [20]: 68.4% |
| O=C(O)c1cn(C2CC2)c2cc(N3CCNCC3)c(F)cc2c1=O [CIPROFLOXACIN] | – | – | – | 100 (≈ 302 µM) | – | – | – | – | – | – | – | – | – | – | – | – | – | – | – | – | – |
| O=C1O[C@H]([C@@H](O)CO)C(O)=C1O [ASCORBIC ACID] | – | – | – | – | 2.8 (≈ 15.9 µM) | 3.1 (≈ 17.6 µM) | 24.3 | 75.4 | 78.5 | 55.5 | 48.8 | 48.8 | 62.1 | 66.5 | 41.3 | 26.5 | 34.5 | 48.6 | 32.6 | 65.3 | Activity [17]: 70.4%; IC50 [18]: 2.72 µg/mL (≈ 15.4 µM); Activity [19]: 73.5%; Activity [20]: 66.5% |

The remaining molecules from weak to strong by MIC (Klebsiella pneumoniae), led by results:

| MIC (Aspergillus niger) [µg/mL] | MIC (Aspergillus flavus) [µg/mL] | MIC (Candida) [µg/mL] | MIC (Klebsiella pneumoniae) [µg/mL] | IC50 [4] [µg/mL] | IC50 [10] [µg/mL] | Structure (SMILES) | Activity [1] [%] | Activity [2] [%] | Activity [3] [%] | Activity [5] [%] | Activity [6] [%] | Activity [7] [%] | Activity [8] [%] | Activity [9] [%] | Activity [11] [%] | Activity [12] [%] | Activity [13] [%] | Activity [14] [%] | Activity [15] [%] | Activity [16] [%] | also measured |
| --- | --- | --- | --- | --- | --- | --- | --- | --- | --- | --- | --- | --- | --- | --- | --- | --- | --- | --- | --- | --- | --- |
| 25 (≈ 81.1 µM) | 25 (≈ 81.1 µM) | 25 (≈ 81.1 µM) | 100 (≈ 324 µM) | 4.16 (≈ 13.5 µM) | 3.8 (≈ 12.3 µM) | COc1cc(OC)cc(-n2c(-c3ccccc3)nc(C)c2C)c1 | 34.5 | 55.5 | 58.6 | 49.5 | 32.4 | 52.5 | 53.3 | 57.6 | 39.1 | 17.2 | 20.2 | 47.1 | 13.3 | 54 | Activity [4]: Dose-dependent effect; MIC (Staphylococcus aureus): 25 µg/mL (≈ 81.1 µM); Activity [10]: Dose-dependent effect; Activity [17]: 55.2%; Activity [18]: Dose-dependent effect; IC50 [18]: 4.14 µg/mL (≈ 13.4 µM); Activity [19]: 61%; MIC (Escherichia coli): 50 µg/mL (≈ 162 µM); Activity [20]: 59% |
| 25 (≈ 84.4 µM) | 25 (≈ 84.4 µM) | 25 (≈ 84.4 µM) | 50 (≈ 169 µM) | 5.2 (≈ 17.5 µM) | 3.46 (≈ 11.7 µM) | COc1ccc(-n2c(-c3ccc(F)cc3)nc(C)c2C)cc1 | 39.1 | 68.7 | 52.9 | 39 | 39 | 46.5 | 41.9 | 64.6 | 48.3 | 11.1 | 20.2 | 43.7 | 38.1 | 48.3 | Activity [4]: Dose-dependent effect; MIC (Staphylococcus aureus): 50 µg/mL (≈ 169 µM); Activity [10]: Dose-dependent effect; Activity [17]: 50.6%; Activity [18]: Dose-dependent effect; IC50 [18]: 3.84 µg/mL (≈ 13 µM); Activity [19]: 41%; MIC (Escherichia coli): 25 µg/mL (≈ 84.4 µM); Activity [20]: 45.7% |
